Source: patent publication US9193986B2, “Method for marking or immobilising a target structure” (Fraunhofer-Gesellschaft Zur Forderung Der Angewandten …, priority 2012, dated 2015)
Non-standard residues stand in square brackets, D forms with d. Residues, ends and D or L forms follow the SMILES beside them. No end group written: not given here. *: point of attachment. FITC = O=C1OC2(c3ccc(O)cc3Oc3cc(O)ccc32)c2ccc(NC(=S)*)cc21; Dopa = N[CH](Cc1ccc(O)c(O)c1)C(=O)O; X1 = O=C1NC2CSC(CCCCC(=O)*)C2N1

Experiments:
[1] = test system: cell lines expressing αvβ6 integrin (HUVEC, SVEC, HT1299); assay: Dependence of the binding on the polypeptide concentration (laccase-activated marking, FACS); type: cell-based; conditions: different concentrations, FIG. 2
Experimental: (§1) The cells were in each case washed twice with PBS and then taken up in an amount of ca. 10^5 cells/ml in PBS. 950 μl portions of the solution were added to 1-ml-FACS-test tubes. Marked polypeptides with and without prior treatment with laccase, were then added according to the following Table 1.
(§2) For this, 40 μl NaAc solution, 105 μl water, 15 μl peptide solution and 120 μl laccase were added in a typical […] polypeptide batch. Samples without laccase contained the corresponding additional volume of water, samples with other polypeptide concentrations contained correspondingly more polypeptide solution (cf. Example 2). After an incubation time of 1 minute 50 μl were added in each case to the cell suspensions or placed in the FACS test tubes.
(§3) After an incubation time of at least 15 minutes the cells were washed three times with 2 ml PBS in the test tube and the fluorescence of the cells was then measured on a cell sorter. The total fluorescence of the cells was measured.
Corresponding to the above experimental procedure (Example 1) various cell lines, all of which express αvβ6 integrin, were marked with different polypeptide concentrations.

[2] = test system: integrin αvβ6 expressing cells (HT1299, SVEC); assay: Marking of integrin αvβ6 expressing cells with DOPA/FITC polypeptide, with and without laccase, FACS fluorescence after washing; type: cell-based; conditions: 5 μM polypeptide, without addition of laccase, washed three times with PBS, FIG. 1
Experimental: Marking of integrin αvβ6 expressing cells:
Cell type: Cell lines HT1299 (lung tumor), HUVEC, SVEC
Polypeptide for the marking: Ac-SPRGDLAVLGHK(FITC)GG-DOPA-G, SEQ ID NO: 1
Polypeptide solution: 4 mg/ml polypeptide in water corresponding to 2 mM
20 mg/ml laccase from Trameters versicolor, 20 U/mg, ASA Spezialenzyme GmbH, Wolfenbüttel
All FAC measurements were made on a Cytomics FC500 (Beckman Coulter).
as §1, §2, §3

Albumen lysozyme = Albumen lysozyme (Gallus gallus, UniProt P00698); assay: Laccase-mediated coupling of structures with DOPA residue to a protein, MS analysis; type: biochemical; conditions: for formation of covalent adduct with lysozyme: equimolar and ten-fold excess, laccase, overnight, room temperature, pH 7.0; for conversion of lysozyme to the adduct: excess of the DOPA compound (ten-fold), FIGS. 5 and 8
Experimental: The following solutions were prepared in 10 mM phosphate buffer pH 7.0: • a) Albumen lysozyme 1 mg/ml, corresponding to 70 μM (solution 1) • b) Compound A (biotin-DOPA) 1 mg in 3 mL, corresponding to 700 μM (solution 2) and a 70 μM dilution (solution 3) • c) Compound B (biotin-RGD-DOPA) 1,2 mg in 2 ml, corresponding to 700 μM (solution 4) and a 70 μM dilution (solution 5) • d) Laccase (Trametes vers., ASA Spezialenzyme GmbH) 1 mg/ml corresponding to 20 u/ml (solution 6)
The reaction was started by mixing 500 μl lysozyme solution (Solution 1) with in each case 500 μl of solution 2 to solution 5 (i.e. in each case equimolar and ten-fold excess) and addition and mixing in 10 μl/0.2 u laccase (solution 6). Lysozyme with 500 μl 10 mM phosphate buffer pH 7.0 and laccase (solution 6) was used as control. The samples were incubated overnight at room temperature and the next day an aliquot was freed from low molecular weight constituents and salts using a desalting column (Micro Bio-Spin P6, BioRad) equilibrated with deionised waters.
The thereby prepared reaction product was analysed in an AB Sciex TOF/TOF™ 5800 system.

Compound	binding to cells as a function of polypeptide concentration [1]	retention of the fluorescent polypeptide on the cells after washing [2]	formation of covalent adduct with lysozyme (Albumen lysozyme)	conversion of lysozyme to the adduct (Albumen lysozyme)
Ac-SPRGDLAVLGHK(FITC)GG-DOPA-G (Ac-SPRGDLAVLGHK(FITC)GG[Dopa]G) [polypeptide]	bind depending on the concentration	can be washed again from the cells		
N=C(N)NCCCC(NC(=O)CNC(=O)CCCCC1SCC2NC(=O)NC21)C(=O)NCC(=O)NC(CC(=O)O)C(=O)NC(Cc1ccc(O)c(O)c1)C(=O)NCC(=O)O (stereo not drawn) [Compound B, biotin-RGD-DOPA] (X1-GRGD[Dopa]G-OH; configuration not given here)			expected reaction products were found	a complete conversion was not achieved
NC(=O)C(Cc1ccc(O)c(O)c1)NC(=O)CCCCC1SCC2NC(=O)NC21 (stereo not drawn) [Compound A]			expected reaction products were found	a complete conversion was not achieved
